These results are taken from patent US9920012B2, “Indazole guanidine F1F0-ATPase inhibitors and therapeutic uses thereof” (Lycera Corporation, priority 2012, dated 2018).

The target of assay [1] is T1, F1F0-ATPase (Bos taurus, UniProt P13621).
T1 construct: from tissue
Description: Inhibition of F1F0-ATPase activity in synthesizing ATP. Format: biochemical. The conditions noted are these: inhibition of ATP synthesis; detection limit IC50=16 μM; read-out: ATP Syn IC50. How it is done: (§1) Exemplary compounds described in above Examples were tested for activity against F1F0-ATPase by measuring the ability of the compounds to inhibit ATP synthesis. In addition, the compounds were assessed for cytotoxicity in Ramos cells. Inhibition of F1F0-ATPase activity in synthesizing ATP and cytotoxicity in Ramos cells were measured according to the procedures described in K. M. Johnson et al. Chemistry & Biology 2005, 12, 485-496.

Assay [2] deals with Ramos cells. Put plainly: Cytotoxicity in Ramos cells. Format: cell-based. The following applies: detection limit EC50=16 μM, read-out: Ramos Cell EC50. How it is done:
as §1

Like-named read-outs stand apart in the source and are kept apart here.

Usually IC50 stands for the concentration needed to halve the response being measured. What is called EC50 is the concentration giving half of the maximal effect. Consider `CCOCCN/C(=N/C(=O)c1ccc(F)c(F)c1)Nc1n[nH]c2cc(Cl)ccc12` [Compound A-61], for which the IC50 in assay [1] was less than 5 µM. Further, the EC50 in assay [2] was less than 5 µM.
In the case of `CC(C)(C)NC(=NC(=O)c1ccc(F)c(F)c1)Nc1n[nH]c2cc(Cl)c(F)cc12` [Compound A-100], the IC50 in assay [1] is less than 5 µM. In addition, the EC50 in assay [2] is less than 5 µM.
With `COC[C@H](C)N/C(=N/C(=O)c1ccc(Cl)c(F)c1)Nc1n[nH]c2cc(C(F)(F)F)ccc12` [Compound A-17], in assay [1], the 50% inhibitory concentration (IC50) is less than 5 µM. The EC50 in assay [2] was more than 16 µM.
Take `COC[C@H](C)N/C(=N/C(=O)c1ccc(F)c(F)c1)Nc1n[nH]c2cccnc12` [Compound A-48]: the IC50 in assay [1] is more than 16 µM. In addition, the half-maximal effective concentration (EC50) in assay [2] is more than 16 µM.
In the case of `CC(C)(O)CN/C(=N/C(=O)c1cccc(O)c1)Nc1n[nH]c2cc(F)ccc12` [Compound A-94], the IC50 in assay [1] is more than 16 µM. Moreover, the EC50 in assay [2] is 5 to 16 µM.
As to `CC(C)(C)N/C(=N/C(=O)c1ccc(F)c(F)c1)Nc1n[nH]c2cccnc12` [Compound A-45], the IC50 in assay [1] lay within 5 to 16 µM. For the same compound, the half-maximal effective concentration (EC50) in assay [2] was more than 16 µM.
For the compound `COC[C@H](C)N/C(=N/C(=O)c1ccc(O)cc1)Nc1n[nH]c2cc(F)ccc12` [Compound A-89], the concentration for half-maximal inhibition (IC50) in assay [1] was in the range of 5 to 16 µM. Further, in assay [2], the EC50 was 5 to 16 µM.
For the compound `CCOCCNC(=NC(=O)c1ccc(Cl)cc1)Nc1n[nH]c2cc(C(F)(F)F)ccc12` [Compound A-65], the concentration for half-maximal inhibition (IC50) in assay [1] is less than 5 µM. Moreover, the 50% effective concentration (EC50) in assay [2] (Homo sapiens) was less than 5 µM.
As to `CC(C)CN/C(=N/C(=O)c1ccc(F)c(F)c1)Nc1n[nH]c2cccc(F)c12` [Compound A-6], the half-inhibitory concentration (IC50) in assay [1] was more than 16 µM. Moreover, in assay [2], the EC50 is more than 16 µM.
Turning to `CCOCCNC(=NC(=O)c1cccc(Cl)c1)Nc1n[nH]c2cc(Cl)c(F)cc12` [Compound A-106], the IC50 in assay [1] was less than 5 µM. In assay [2] (Homo sapiens), the concentration giving a half-maximal response (EC50) was less than 5 µM.
On to `CC(C)CN/C(=N/C(=O)c1ccc(F)c(F)c1)Nc1n[nH]c2ncccc12` [Compound A-70], for which the IC50 in assay [1] is more than 16 µM. Besides, the EC50 in assay [2] was more than 16 µM.
For the compound `CCOCCCN/C(=N/C(=O)c1ccc(Cl)c(F)c1)Nc1n[nH]c2cc(C(F)(F)F)ccc12` [Compound A-15], the half-inhibitory concentration (IC50) in assay [1] is less than 5 µM. Also, the EC50 in assay [2] is less than 5 µM.
On to `CC(C)(C)N/C(=N/C(=O)c1ccc(C(F)(F)F)cc1)Nc1n[nH]c2ncccc12` [Compound A-62], for which, in assay [1], the concentration for half-maximal inhibition (IC50) was more than 16 µM. For the same compound, in assay [2], the EC50 is more than 16 µM.
As for `CC(C)CN/C(=N/C(=O)c1ccc(O)cc1)Nc1n[nH]c2cc(F)ccc12` [Compound A-91], the half-inhibitory concentration (IC50) in assay [1] lay in the range of 5 to 16 µM. Besides, the EC50 in assay [2] is more than 16 µM.
Regarding `CC(C)CN/C(=N/C(=O)c1ccc(F)c(F)c1)Nc1n[nH]c2ccc(C(F)(F)F)cc12` [Compound A-51], in assay [1], the concentration for half-maximal inhibition (IC50) was less than 5 µM. The EC50 in assay [2] was less than 5 µM.
As for `CC(C)CN/C(=N/C(=O)c1ccc(F)c(F)c1)Nc1n[nH]c2cc(Cl)ccc12` [Compound A-31], in assay [1], the concentration for half-maximal inhibition (IC50) is less than 5 µM. Besides, the EC50 in assay [2] was less than 5 µM.
In the case of `CC(C)CN/C(=N/C(=O)c1ccc2nonc2c1)Nc1n[nH]c2cc(F)ccc12` [Compound A-29], the concentration for half-maximal inhibition (IC50) in assay [1] was less than 5 µM. Moreover, the concentration for a half-maximal effect (EC50) in assay [2] is more than 16 µM.
With `CC(C)(C)N/C(=N/C(=O)c1ccc(F)c(F)c1)Nc1n[nH]c2c(C(F)(F)F)cccc12` [Compound A-57], in assay [1], the IC50 was more than 16 µM. Also, in assay [2], the EC50 was in the range of 5 to 16 µM.
For the compound `CCOCCN/C(=N/C(=O)c1ccc(F)c(F)c1)Nc1n[nH]c2cc(F)ccc12` [Compound A-81], the concentration for half-maximal inhibition (IC50) in assay [1] is less than 5 µM. The EC50 in assay [2] is less than 5 µM.
On to `O=C(/N=C(/Nc1cc(F)cc(Cl)c1)Nc1n[nH]c2cccc(F)c12)c1ccc(F)c(F)c1` [Compound A-113], for which the IC50 in assay [1] was more than 16 µM. Besides, the concentration giving a half-maximal response (EC50) in assay [2] (Homo sapiens) is more than 16 µM.
`COC[C@H](C)N/C(=N/C(=O)c1ccc(F)c(F)c1)Nc1nn(C)c2cc(C(F)(F)F)ccc12` [Compound A-114]: the half-inhibitory concentration (IC50) in assay [1] was more than 16 µM. The 50% effective concentration (EC50) in assay [2] (Homo sapiens) is more than 16 µM.
Turning to `COC[C@H](C)N/C(=N/C(=O)c1ccc(F)c(F)c1)Nc1n[nH]c2cc(C(F)(F)F)ccc12` [Compound 3, (S)-3,4-Difluoro-N-(((1-methoxypropan-2-yl)amino)((6-(trifluoromethyl)-1H-indazol-3-yl)amino)methylene)benzamide], the IC50 in assay [1] was less than 5 µM. For the same compound, the EC50 in assay [2] (Homo sapiens) was less than 5 µM.
Turning to `CC(C)N/C(=N/C(=O)c1ccc(F)c(F)c1)Nc1n[nH]c2c(F)cccc12` [Compound A-76], the concentration for half-maximal inhibition (IC50) in assay [1] was less than 5 µM. Besides, the EC50 in assay [2] is less than 5 µM.
For the compound `CCC(C)N/C(=N/C(=O)c1ccc(F)c(F)c1)Nc1n[nH]c2cc(C(F)(F)F)ccc12` (stereo not drawn) [Compound A-9], in assay [1], the 50% inhibitory concentration (IC50) is less than 5 µM. In addition, in assay [2], the concentration giving a half-maximal response (EC50) was less than 5 µM.
In the case of `CC(C)(C)CNC(=NC(=O)c1ccc(F)c(F)c1)Nc1n[nH]c2ccccc12` [Compound A-36], the 50% inhibitory concentration (IC50) in assay [1] is less than 5 µM. For the same compound, the EC50 in assay [2] (Homo sapiens) is less than 5 µM.
As for `COC[C@H](C)N/C(=N/C(=O)c1ccc(F)c(F)c1)Nc1n[nH]c2cc(C(F)(F)F)ccc12` [Compound A-88], the concentration for half-maximal inhibition (IC50) in assay [1] is more than 16 µM. The EC50 in assay [2] was less than 5 µM.
Take `CCOCCN/C(=N/C(=O)c1ccc(F)c(F)c1)Nc1n[nH]c2c(F)cccc12` [Compound A-75]: in assay [1], the IC50 was more than 16 µM. Moreover, the concentration for a half-maximal effect (EC50) in assay [2] is more than 16 µM.
As to `CC(C)CN/C(=N/C(=O)c1ccc(F)c(F)c1)Nc1n[nH]c2ccc(F)cc12` [Compound A-4], in assay [1], the IC50 is less than 5 µM. The EC50 in assay [2] lay in the range of 5 to 16 µM.
`COC[C@H](C)N/C(=N/C(=O)c1ccc(N2CCOCC2)nc1)Nc1n[nH]c2cc(C(F)(F)F)ccc12` [Compound A-26]: the 50% inhibitory concentration (IC50) in assay [1] is 5 to 16 µM. Further, the EC50 in assay [2] is more than 16 µM.
Regarding `COC[C@H](C)N/C(=N/C(=O)c1ccc(Cl)cc1)Nc1n[nH]c2cc(F)ccc12` [Compound A-80], the IC50 in assay [1] is less than 5 µM. For the same compound, the half-maximal effective concentration (EC50) in assay [2] is less than 5 µM.
For the compound `CC(C)(C)NC(=NC(=O)c1cccc(Cl)c1)Nc1n[nH]c2cc(F)ccc12` [Compound A-97], in assay [1], the half-maximal inhibitory concentration (IC50) is less than 5 µM. Further, the EC50 in assay [2] is less than 5 µM.
As for `CC(C)CN/C(=N/C(=O)c1ccc(F)c(F)c1)Nc1n[nH]c2cc(C(F)(F)F)ccc12` [Compound A-8], the IC50 in assay [1] was less than 5 µM. Moreover, the EC50 in assay [2] was less than 5 µM.
Turning to `CCOCCN/C(=N/C(=O)c1ccc2nonc2c1)Nc1n[nH]c2cc(F)ccc12` [Compound A-30], the 50% inhibitory concentration (IC50) in assay [1] was more than 16 µM. Also, in assay [2], the EC50 was more than 16 µM.
On to `COC[C@H](C)N/C(=N/C(=O)c1ccc(F)c(F)c1)Nc1n[nH]c2c(F)cccc12` [Compound A-74], for which the 50% inhibitory concentration (IC50) in assay [1] was 5 to 16 µM. For the same compound, the half-maximal effective concentration (EC50) in assay [2] is 5 to 16 µM.
In the case of `CC(C)(C)N/C(=N/C(=O)c1ccc(F)c(F)c1)Nc1n[nH]c2ncccc12` [Compound A-69], the half-maximal inhibitory concentration (IC50) in assay [1] is more than 16 µM. For the same compound, in assay [2], the 50% effective concentration (EC50) is more than 16 µM.
In the case of `CC(C)(C)N/C(=N/C(=O)c1ccc(F)c(F)c1)Nc1n[nH]c2ccc(C(F)(F)F)cc12` [Compound A-50], the IC50 in assay [1] is less than 5 µM. Besides, in assay [2], the concentration giving a half-maximal response (EC50) is less than 5 µM.
Take `CC(C)CN/C(=N/C(=O)c1cccc(O)c1)Nc1n[nH]c2cc(F)ccc12` [Compound A-95]: in assay [1], the IC50 was less than 5 µM. The concentration giving a half-maximal response (EC50) in assay [2] lay within 5 to 16 µM.
For the compound `COC[C@H](C)N/C(=N/C(=O)c1cccc(O)c1)Nc1n[nH]c2cc(F)ccc12` [Compound A-93], the half-inhibitory concentration (IC50) in assay [1] lay within 5 to 16 µM. Besides, the concentration for a half-maximal effect (EC50) in assay [2] fell in the range of 5 to 16 µM.
With `CC(C)(C)CNC(=NC(=O)c1ccc2nonc2c1)Nc1n[nH]c2cc(F)ccc12` [Compound A-28], in assay [1], the IC50 lay within 5 to 16 µM. Further, the EC50 in assay [2] (Homo sapiens) is more than 16 µM.
